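96-well plates; 48 h exposure; 5 concentrations. Endpoints by linear interpolation between flanking doses. Not reached: highest tested concentration assigned. GI50: concentration for 50% inhibition of growth.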 The source made the active and inactive calls. Cut-off read from the data, not from the text of the source: active = GI50 up to about 1.1 µM and inactive = higher.
Experiments:
Experiment in all cases: growth of human tumour cells (NCI), 48 h
KM-20L2 = system: KM-20L2
DMS-114 = system: DMS-114
XF498 = system: XF498
HOP-18 = system: HOP-18
DMS-273 = system: DMS-273
SNB-78 = system: SNB-78
M19-MEL = system: M19-MEL
LXFL 529 = system: LXFL 529
RXF 631 = system: RXF 631

Compound | GI50 (KM-20L2) | GI50 (DMS-114) | GI50 (XF498) | GI50 (HOP-18) | GI50 (DMS-273) | GI50 (SNB-78) | GI50 (M19-MEL) | GI50 (LXFL 529) | GI50 (RXF 631)
N#CC1=C(N)Oc2c(ccc3cccnc23)C1c1ccccc1 (stereo unspecified) | 0.555 µM (active) | 0.914 µM (active) | 7.98 µM (inactive) | > 100 µM (inactive) | 0.445 µM (active) | 1.45 µM (inactive) | 1.67 µM (inactive) | 1.7 µM (inactive) | 
CN(C)c1ccc(/C=C2\C=Cc3ccccc32)cc1 | 42.6 µM (inactive) | 22.1 µM (inactive) |  | > 100 µM (inactive) | 36.7 µM (inactive) |  | > 100 µM (inactive) | 56.4 µM (inactive) | 
COC(=O)c1ccc(C(=O)OC)c2nc3cc(Cl)ccc3nc12 | > 100 µM (inactive) | > 100 µM (inactive) | > 100 µM (inactive) | > 100 µM (inactive) | > 100 µM (inactive) |  | > 100 µM (inactive) | > 100 µM (inactive) | > 100 µM (inactive)
CNS(=O)(=O)NNS(=O)(=O)c1cccc([N+](=O)[O-])c1 | > 100 µM (inactive) | > 100 µM (inactive) |  |  | > 100 µM (inactive) |  | > 100 µM (inactive) | > 100 µM (inactive) | 
CC1(O)CC2(O)C=CC3=C(C(=O)c4cccc(O)c4C3=O)C2(O)C(=O)C1O (stereo unspecified) | 1.16 µM (inactive) | 1.67 µM (inactive) |  | 1.7 µM (inactive) | 5.08 µM (inactive) |  | 0.646 µM (active) | 0.495 µM (active) | 
CN(C)CCSc1nccc(-c2cc3ccccc3s2)n1 |  | 23.2 µM (inactive) |  | < 0.01 µM (active) | 15.9 µM (inactive) | 16.3 µM (inactive) |  | 16.8 µM (inactive) | 
CCOC(=O)C1=C(C)N(NC(=O)Nc2ccccc2)C2(N)N(NC(=O)Nc3ccccc3)C(C)=C(C(=O)OCC)C12C#N (stereo unspecified) | 18.7 µM (inactive) | 16.1 µM (inactive) |  | 16.3 µM (inactive) | 17 µM (inactive) | 19.4 µM (inactive) | 17.8 µM (inactive) | 18.6 µM (inactive) | 
Cc1nc(O)nc(CC(O)(c2ccccc2)c2ccccc2)c1-c1ccccc1 | > 100 µM (inactive) | 80.5 µM (inactive) |  | > 100 µM (inactive) | > 100 µM (inactive) | > 100 µM (inactive) | > 100 µM (inactive) | > 100 µM (inactive) | > 100 µM (inactive)
Cc1nc(Nc2ccccc2)sc1C(=O)CC(=O)C(=O)NC12CC3CC(CC(C3)C1)C2 | 80.7 µM (inactive) | 78.7 µM (inactive) | > 100 µM (inactive) | > 100 µM (inactive) | > 100 µM (inactive) | > 100 µM (inactive) | > 100 µM (inactive) | 99.5 µM (inactive) | 
Cn1c2cc([N+](=O)[O-])ccc2c(=O)c2c(O)cc3c(c21)C=CC(C)(C)O3 | > 100 µM (inactive) |  | 21 µM (inactive) | < 0.01 µM (active) | 54 µM (inactive) | 40.5 µM (inactive) |  | 28.4 µM (inactive) | 
COc1ccc(/C=N/NC(=O)NCCNCCO)cc1 | > 100 µM (inactive) | > 100 µM (inactive) |  | > 100 µM (inactive) | > 100 µM (inactive) | > 100 µM (inactive) | > 100 µM (inactive) | > 100 µM (inactive) | 
CCCC/C=C1\CCC(CN2CCCC2)C1=O (stereo unspecified) | 14.7 µM (inactive) | 15.9 µM (inactive) | 16.1 µM (inactive) |  | 16.7 µM (inactive) | 26.4 µM (inactive) | 16.9 µM (inactive) | 1.56 µM (inactive) | 17.7 µM (inactive)
Cc1ccc(/C=C/C(=O)c2sc(-c3cccnc3)nc2C)cc1 | > 100 µM (inactive) |  |  | > 100 µM (inactive) | > 100 µM (inactive) | > 100 µM (inactive) | > 100 µM (inactive) |  | > 100 µM (inactive)
Cc1nc2c(n1CC(C)(C)C)C(=O)c1ccccc1C2=O | > 100 µM (inactive) |  | > 100 µM (inactive) |  | 76.9 µM (inactive) | > 100 µM (inactive) |  | > 100 µM (inactive) | 
Cc1nc2nnc(C)n2c2c1C(=O)Nc1ccccc1N2 | > 100 µM (inactive) | > 100 µM (inactive) | > 100 µM (inactive) | > 100 µM (inactive) | > 100 µM (inactive) | > 100 µM (inactive) | > 100 µM (inactive) | > 100 µM (inactive) | 
N=C(NNS(=O)(=O)c1ccccc1)Oc1ccc(Br)cc1Br | > 100 µM (inactive) | > 100 µM (inactive) | > 100 µM (inactive) | > 100 µM (inactive) | > 100 µM (inactive) | > 100 µM (inactive) | > 100 µM (inactive) | > 100 µM (inactive) | > 100 µM (inactive)
CCOC(=O)[C@H]1Nc2ccc(OC)cc2C2c3ccccc3CC21 (stereo partly specified) | > 100 µM (inactive) | > 100 µM (inactive) | > 100 µM (inactive) |  | > 100 µM (inactive) | > 100 µM (inactive) | > 100 µM (inactive) | > 100 µM (inactive) | > 100 µM (inactive)
CS/C(=N/C(=O)c1ccccc1Cl)SCCS/C(=N\C(=O)c1ccccc1Cl)SC | > 100 µM (inactive) | > 100 µM (inactive) | > 100 µM (inactive) |  | > 100 µM (inactive) | > 100 µM (inactive) | > 100 µM (inactive) |  | 
OCCN(CCO)c1ncnc2c1sc(=S)n2-c1ccccc1 | > 100 µM (inactive) | > 100 µM (inactive) | > 100 µM (inactive) | > 100 µM (inactive) | > 100 µM (inactive) | > 100 µM (inactive) | > 100 µM (inactive) | > 100 µM (inactive) | 
CC1=NN(C(=O)c2ccncc2)C(=O)C1/N=N/c1ccc(F)cc1 (stereo unspecified) | > 100 µM (inactive) | > 100 µM (inactive) | > 100 µM (inactive) |  | 92.5 µM (inactive) | 63.1 µM (inactive) | > 100 µM (inactive) | > 100 µM (inactive) | 
C/C(=N\NC(=N)N)C(CN1CCOCC1)C(c1ccccc1)c1c(O)c2ccccc2oc1=O (stereo unspecified) | > 100 µM (inactive) | 45.8 µM (inactive) | > 100 µM (inactive) | > 100 µM (inactive) | > 100 µM (inactive) | 50.8 µM (inactive) | > 100 µM (inactive) | > 100 µM (inactive) | 
CCOC(=O)C12CCSC1C1(C#N)C(C#N)=CC2(N=P(c2ccccc2)(c2ccccc2)c2ccccc2)n2c(=O)n(-c3ccccc3)c(=O)n21 (stereo unspecified) | 65 µM (inactive) | 29.4 µM (inactive) | 24.3 µM (inactive) |  |  | 68.5 µM (inactive) | 33.4 µM (inactive) | 28.8 µM (inactive) | 70 µM (inactive)
COc1cc2c(cc1OC)C(Cc1ccc(Oc3cc(CC4c5cc(OC)c(OC)cc5CCN4C)ccc3O)cc1)N(C)CC2 (stereo unspecified) | 13.1 µM (inactive) | 16.3 µM (inactive) | 18.3 µM (inactive) | 26.5 µM (inactive) | 21.7 µM (inactive) | 28.5 µM (inactive) | 21 µM (inactive) | 14.8 µM (inactive) | 
CC[C@@]1(OC(=O)CCC(=O)O)C(=O)OCc2c1cc1n(c2=O)Cc2cc3ccccc3nc2-1 | 0.979 µM (active) | 0.046 µM (active) | 0.497 µM (active) | 0.492 µM (active) | < 0.0203 µM (active) | 2.77 µM (inactive) | 0.239 µM (active) | 2.01 µM (inactive) | 0.427 µM (active)
[N-]=[N+]=NC12CC3C4CC5CC3C(C1)C(C5)C4C2 |  | > 100 µM (inactive) | > 100 µM (inactive) | > 100 µM (inactive) | > 100 µM (inactive) | > 100 µM (inactive) | > 100 µM (inactive) | > 100 µM (inactive) | > 100 µM (inactive)
CCN(CCCl)CCCCCNc1c2ccccc2nc2ccc(OC)cc12 | 0.655 µM (active) | 0.334 µM (active) | 0.251 µM (active) |  | 0.184 µM (active) | 0.736 µM (active) | 0.476 µM (active) | 0.444 µM (active) | 

Source: ChEMBL document CHEMBL1201862, “PubChem BioAssay data set” (2004)
